In general, IC50 refers to the point on the concentration scale where inhibition reaches its midpoint. A high value points to lower potency.

The values that follow come from ChEMBL document CHEMBL1148272, “3D-QSAR studies on PU3 analogues by comparative molecular field analysis” (Bioorg Med Chem Lett, 2004).

Molecules are shown by their SMILES.

In this assay the test system is MCF7. Nature of the assay: Antiproliferative activity evaluated against MCF-7 cell line. The class given is functional, cell-based. The note with it: Homo sapiens.
`COc1cc(Cc2nc3c(N)ncnc3n2CC2(C)CC2)cc(OC)c1OC` showed a half-maximal inhibitory concentration (IC50) of 112 µM.
As to `COc1cc(Cc2nc3c(N)nc(F)nc3n2CCOC(C)C)cc(OC)c1OC`, the IC50 was 15.8 µM.
Then `COc1cc(Cc2nc3c(N)nc(F)nc3n2CC2CCCO2)cc(OC)c1OC` (stereo not given), with 22.9 µM; and `COCCn1c(Cc2cc(OC)c(OC)c(OC)c2)nc2c(N)ncnc21`, with 64.6 µM.
Turning to `CC/C=C/Cn1c(Cc2cc(OC)c(OC)c(OC)c2)nc2c(N)ncnc21`, 46.8 µM corresponded to half-maximal inhibition (IC50).
The result for `CCC(C)Cn1c(Cc2cc(OC)c(OC)c(OC)c2)nc2c(N)ncnc21` (stereo not given) reads 61.7 µM; that for `C/C=C/Cn1c(Cc2cc(OC)c(OC)c(OC)c2)nc2c(N)ncnc21`, 51.3 µM; that for `C=CCCCn1c(Cc2cc(OC)c(OC)c(OC)c2)nc2c(N)nc(F)nc21`, 44.7 µM.
Then `CCCn1c(Cc2cc(OC)c(OC)c(OC)c2)nc2c(N)nc(F)nc21`, with 25.1 µM; and `CCCn1c(Cc2cc(OC)c(OC)c(OC)c2)nc2c(N)ncnc21`, with 46.8 µM; and `COc1cc(Cc2nc3c(N)nc(F)nc3n2CCOC(C)C)c(Cl)c(OC)c1OC`, with 5.37 µM.
The molecule `COc1cc(Cc2nc3c(N)ncnc3n2CC(C)C)cc(OC)c1OC` gave an IC50 of 97.7 µM.
The result for `CCCCn1c(Cc2cc(OC)c(OC)c(OC)c2Cl)nc2c(N)ncnc21` reads 19.1 µM.
With `COc1cc(Cc2nc3c(N)ncnc3n2CC(OC)OC)cc(OC)c1OC`, inhibition was half-maximal at 72.4 µM (IC50).
The result for `COc1cc(Cc2nc3c(N)ncnc3n2CC2CCCO2)cc(OC)c1OC` (stereo not given) reads 91.2 µM; that for `CCCCn1c(Cc2cc(OC)c(OC)c(OC)c2)nc2c(N)nc(F)nc21`, 24 µM.
The result for `COc1cc(Cc2nc3c(N)ncnc3n2C)cc(OC)c1OC` reads 70.8 µM; that for `C#CCCn1c(Cc2cc(OC)c(OC)c(OC)c2)nc2c(N)nc(F)nc21`, 25.1 µM; that for `C#CCCCn1c(Cc2cc(OC)c(OC)c(OC)c2Cl)nc2c(N)nc(F)nc21`, 2 µM.
`CCCCn1c(Cc2cc(OC)c(OC)c(OC)c2Br)nc2c(N)ncnc21` showed a half-inhibitory concentration (IC50) of 25.1 µM.
`C#CCCCn1c(Cc2cc(OC)c(OC)c(OC)c2)nc2c(N)nc(F)nc21` had an IC50 of 11 µM.
Molecule `CCCCCn1c(Cc2cc(OC)c(OC)c(OC)c2)nc2c(N)nc(F)nc21` showed an IC50 of 36.3 µM.
The molecule `COCCn1c(Cc2cc(OC)c(OC)c(OC)c2)nc2c(N)nc(F)nc21` had a concentration for half-maximal inhibition (IC50) of 64.6 µM.
Then `CCCCn1c(Cc2cc(OC)c(OC)c(OC)c2)nc2c(N)ncnc21`, with 50.1 µM.
Then `CCn1c(Cc2cc(OC)c(OC)c(OC)c2)nc2c(N)ncnc21`, with 79.4 µM.
On to `COc1cc(Cc2nc3c(N)ncnc3n2CCOC(C)C)cc(OC)c1OC`, for which the IC50 is 38.9 µM.
The result for `COc1cc(Cc2nc3c(N)ncnc3n2CCCC(C)C)cc(OC)c1OC` reads 69.2 µM.
As to `C#CCCCn1c(Cc2cc(OC)c(OC)c(OC)c2)nc2c(N)ncnc21`, the IC50 was 24 µM.
In turn, `CCCCn1c(Cc2c(Br)c(OC)c(OC)c(OC)c2Br)nc2c(N)ncnc21` showed a concentration for half-maximal inhibition (IC50) of 30.2 µM.
The result for `CC/C=C\Cn1c(Cc2cc(OC)c(OC)c(OC)c2)nc2c(N)ncnc21` reads 64.6 µM.
Then `C=CCCn1c(Cc2cc(OC)c(OC)c(OC)c2)nc2c(N)nc(F)nc21`, with 33.1 µM; and `CCCCCn1c(Cc2cc(OC)c(OC)c(OC)c2)nc2c(N)ncnc21`, with 61.7 µM; and `COc1cc(Cc2nc3c(N)ncnc3n2CC2CCC2)cc(OC)c1OC`, with 45.7 µM.
The result for `CC#CCCn1c(Cc2cc(OC)c(OC)c(OC)c2)nc2c(N)nc(F)nc21` reads 37.2 µM; that for `COc1cc(Cc2nc3c(N)ncnc3n2CC2CC2)cc(OC)c1OC`, 75.9 µM.
The molecule `COc1cc(Cc2nc3c(N)ncnc3n2CC2CCCCC2)cc(OC)c1OC` gave an IC50 of 39.8 µM.
The result for `CC[C@H](C)Cn1c(Cc2cc(OC)c(OC)c(OC)c2)nc2c(N)nc(F)nc21` reads 43.7 µM.
Then `C=CCCn1c(Cc2cc(OC)c(OC)c(OC)c2)nc2c(N)ncnc21`, with 40.7 µM.
Then `CCC(CC)Cn1c(Cc2cc(OC)c(OC)c(OC)c2)nc2c(N)ncnc21`, with 158 µM.
Turning to `COc1cc(Cc2nc3c(N)nc(F)nc3n2CC2CCC2)cc(OC)c1OC`, half-maximal inhibition (IC50) was put at 40.7 µM.
